# Laboratory results published in US11433043B2, “Compounds useful for increasing neurogenesis in neural tissue” (ALFASIGMA S.P.A., priority 2010, dated 2022).
# Experiments:
# Type in all cases: cell-based
# [1] = system: adult neural progenitors taken from the mouse hippocampus; assay: Differentiation of stem cells/adult neural progenitors from hippocampal neurospheres (MAP-2/nestin immunofluorescence); details: for NPC neuronal differentiation: compared to ALC 1 mM
# Description: The adult stem cells from the mouse hippocampus were prepared and maintained in culture in the form of neurospheres as described previously in Denis-Donini S. et al. J. Neuroscience, 2008. In particular, male CD1 mice aged 3-5 months were used, in accordance with the animal experimentation laws.
# For differentiation, the cells derived from the hippocampal neurospheres with passages of between 4-12 were dissociated and plated on Lab-Tek 8-well permanox chamber slides (Nunc, Wiesbaden, Germany) previously coated with mouse laminin (2.5 μg/cm^2 Sigma) at a density of about 40,000 cells/cm^2. The composition of the differentiation medium was: Neurobasal-A, supplement B27, glutamine 2 mM, 100 U/100 μg/ml penicillin/streptomycin. ALC (0.1-2 mM) or a vehicle was added to the medium. After 24 hours the cells were washed and fixed in 4% paraformaldehyde for 20 min for subsequent analysis using immunofluorescence.
# The cells fixed after differentiation in the presence of ALC, a vehicle or reference drugs were washed three times in PBS and permeabilized by incubation for 5 min, at room temperature with PBS supplemented with 0.48% (vol/vol) Triton X-100 (Sigma). Subsequently the cells were incubated with the following primary antibodies: anti-nestin mouse monoclonal antibody, 1:1200, Abcam, Cambridge, Mass.); anti-MAP-2 (rabbit polyclonal antibody, 1:600, Chemicon). The cells were incubated in the primary antibody for 150 min at room temperature in a solution containing 8% (vol/vol) of goat serum. The secondary antibodies used were: Alexa Fluor 594-conjugated donkey anti mouse antibody (1:1400, Molecular Probes), Alexa Fluor 488-conjugated donkey anti-rabbit (1:1 600, Molecular Probes), in a solution containing 16% (vol/vol) of donkey serum. The nuclei were then counterstained with Draq5 (1:2000, Alexis Biochemicals) prepared in PBS. The slides were assembled using Fluorescent Mounting Medium (DakoCytomation, Glostrup).
# In each experiment, the cells of at least 5 fields/well (corresponding to about 150 cells), were quantified if positive to one or more phenotypical markers used to distinguish between them: undifferentiated stem progenitor cells, immature neurons, mature neurons. The cells were counted by an operator (blind to the nature of the treatment undergone by the cells) using an ECLIPSE E600 fluorescence microscope (NIKON, Calenzano, Italy) with a 60× lens. All experiments were conducted on at least five cell preparations, with each experimental point in triplicate.
# [2] = system: adult neural progenitors taken from the mouse hippocampus; assay: Cell survival: apoptotic nuclei (Hoechst staining) after differentiation
# Description: (§1) After differentiation in the presence of ALC, a vehicle or reference drugs, the medium was collected and the activity of the LDH enzyme was determined using the Cytotoxicity Detection Kit LDH (Roche Applied Science), following the manufacturer's instructions, to quantify death due to necrosis. In parallel, to assess also apoptotic death, after fixation, the cell nuclei were marked with 0.8 ng/ml Hoechst (Sigma-Aldrich) diluted in PBS. The apoptic nuclei were counted by an operator (blind to the nature of the treatment undergone by the cells) using an ECLIPSE E600 fluorescence microscope (NIKON, Calenzano, Italy) with a 60× lens. All experiments were conducted on at least five cell preparations, with each experimental point in triplicate.
# [3] = system: adult neural progenitors taken from the mouse hippocampus; assay: Cell survival: LDH enzyme activity in culture medium (necrosis)
# Description: as §1
# [4] = Example 1, ALC 0.1-2 mM, 24 hours, FIG. 5
# [5] = Example 2, 0.3-1 mM, lesser extent compared to ALC 1 mM, FIG. 6
# [6] = at the concentrations that induced neurogenesis
Compound,"NPC neuronal differentiation ([1]; Example 2, 0.3-1 mM, FIG. 6)","percentage of MAP-2 positive cells in culture ([1]; Example 1, ALC 0.1-2 mM, 24 hours differentiation, concentration-dependent, FIG. 1)","number of immature neurons (MAP2 positive, nestin positive) [1, 4]","number of progenitor cells (MAP2 negative, nestin negative) [1, 4]","number of stem/progenitor cells (MAP2 negative, nestin positive) [1, 4]","number of mature neurons (MAP2 positive, nestin negative) ([1]; Example 1, ALC 0.1-2 mM, 24 hours, concentration-dependent, FIG. 5)","percentage of apoptotic nuclei ([2]; ALC 100 μM, 300 μM or 1 mM, FIG. 3)","activity of the LDH enzyme, an index of necrosis, in the culture medium ([3]; ALC 100 μM, 300 μM or 1 mM, FIG. 4)","number of a subpopulation of undifferentiated stem/neural progenitors [1, 5]","number of immature neurons [1, 5]","number of mature neurons [1, 5]","percentage of apoptotic nuclei [2, 6]","activity of the LDH enzyme, an index of necrosis [3, 6]"
"C[N+](C)(C)C[C@H](O)CC(=O)[O-] [LC, L-carnitine]",no effect,–,–,–,–,–,–,–,–,–,–,–,–
"CC(=O)O[C@H](CC(=O)[O-])C[N+](C)(C)C [ALC, acetyl L-carnitine]",–,increase,increased,decreased,no effect,increased,did not reduce,did not reduce,–,–,–,–,–
"CCC(=O)O[C@H](CC(=O)[O-])C[N+](C)(C)C [PLC, propionyl L-carnitine]",less potent activator,–,–,–,–,–,–,–,reduced,increased,increased,did not reduce,did not reduce
